Measurements reported in patent US9776995B2, “Bicyclic sulfonamide compounds as sodium channel inhibitors” (AMGEN INC., priority 2013, dated 2017).

target: Nav 1.7 (Homo sapiens (Human), UniProt Q15858); experiment: Nav 1.7 in vitro PX assay (PatchXpress whole cell voltage clamp); type: cell-based; conditions: not given;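 further: holding potential set for 20 to 50% inactivation, sodium current evoked by a 20 ms step to −10 mV, peak current inhibition read after compound exposure, 3–5 cells per concentration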
Sequence (Q15858 whole entry): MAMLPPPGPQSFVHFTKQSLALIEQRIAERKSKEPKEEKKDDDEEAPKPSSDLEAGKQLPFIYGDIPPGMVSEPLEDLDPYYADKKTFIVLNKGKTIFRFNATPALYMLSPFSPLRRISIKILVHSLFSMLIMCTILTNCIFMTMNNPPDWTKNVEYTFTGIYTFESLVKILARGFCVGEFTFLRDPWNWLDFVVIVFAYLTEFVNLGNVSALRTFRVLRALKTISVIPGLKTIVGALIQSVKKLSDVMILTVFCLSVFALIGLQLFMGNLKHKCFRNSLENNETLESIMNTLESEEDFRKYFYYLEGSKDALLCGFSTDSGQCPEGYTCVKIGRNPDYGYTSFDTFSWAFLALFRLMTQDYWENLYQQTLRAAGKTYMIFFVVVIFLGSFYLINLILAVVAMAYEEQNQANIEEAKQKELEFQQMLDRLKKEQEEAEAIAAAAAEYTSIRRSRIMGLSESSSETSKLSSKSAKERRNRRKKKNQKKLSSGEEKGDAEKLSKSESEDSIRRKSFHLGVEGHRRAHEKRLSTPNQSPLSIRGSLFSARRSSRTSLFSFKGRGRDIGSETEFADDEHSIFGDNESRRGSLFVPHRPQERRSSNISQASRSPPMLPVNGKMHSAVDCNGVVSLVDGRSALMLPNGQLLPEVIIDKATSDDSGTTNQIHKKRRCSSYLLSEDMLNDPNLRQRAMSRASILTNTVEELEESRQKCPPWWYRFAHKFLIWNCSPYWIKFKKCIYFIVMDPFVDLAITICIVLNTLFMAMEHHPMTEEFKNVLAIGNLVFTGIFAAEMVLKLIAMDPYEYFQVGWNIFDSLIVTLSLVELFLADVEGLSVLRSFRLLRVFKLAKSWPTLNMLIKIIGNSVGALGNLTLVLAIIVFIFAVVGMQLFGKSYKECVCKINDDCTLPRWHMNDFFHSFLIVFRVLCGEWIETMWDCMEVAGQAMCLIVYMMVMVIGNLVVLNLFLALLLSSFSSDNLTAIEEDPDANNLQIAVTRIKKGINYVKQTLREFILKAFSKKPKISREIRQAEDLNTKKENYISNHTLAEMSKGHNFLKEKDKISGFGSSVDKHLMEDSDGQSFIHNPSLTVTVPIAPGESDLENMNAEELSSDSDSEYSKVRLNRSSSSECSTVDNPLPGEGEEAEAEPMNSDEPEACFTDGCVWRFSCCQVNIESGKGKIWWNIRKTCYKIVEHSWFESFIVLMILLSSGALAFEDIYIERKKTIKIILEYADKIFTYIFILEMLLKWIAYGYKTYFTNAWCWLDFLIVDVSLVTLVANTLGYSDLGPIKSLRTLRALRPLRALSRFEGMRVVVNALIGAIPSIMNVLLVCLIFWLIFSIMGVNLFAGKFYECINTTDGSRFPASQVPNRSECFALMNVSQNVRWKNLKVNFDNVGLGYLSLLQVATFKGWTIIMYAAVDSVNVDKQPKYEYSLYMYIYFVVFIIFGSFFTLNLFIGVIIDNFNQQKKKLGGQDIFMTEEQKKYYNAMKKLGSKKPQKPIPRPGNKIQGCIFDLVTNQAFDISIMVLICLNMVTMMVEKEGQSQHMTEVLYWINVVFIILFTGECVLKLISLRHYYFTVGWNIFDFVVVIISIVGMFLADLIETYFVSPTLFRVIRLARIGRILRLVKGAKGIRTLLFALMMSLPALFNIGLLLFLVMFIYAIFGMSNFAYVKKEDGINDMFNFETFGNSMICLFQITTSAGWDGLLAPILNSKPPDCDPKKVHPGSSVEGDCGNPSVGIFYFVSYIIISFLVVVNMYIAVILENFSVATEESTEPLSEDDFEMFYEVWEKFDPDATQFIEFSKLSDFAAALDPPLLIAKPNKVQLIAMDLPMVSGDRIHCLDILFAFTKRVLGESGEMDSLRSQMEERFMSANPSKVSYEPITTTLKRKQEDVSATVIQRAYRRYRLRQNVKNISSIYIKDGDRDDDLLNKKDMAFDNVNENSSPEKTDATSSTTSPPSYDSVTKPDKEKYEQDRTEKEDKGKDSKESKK

| IC50 | Structure (SMILES) |
| --- | --- |
| 225 nM | COc1cc(C(F)(F)F)ccc1C1c2ccc(S(=O)(=O)Nc3ncns3)cc2CCN1C(C)=O (stereo not drawn) [Example 51, 2-ACETYL-1-(2-METHOXY-4-(TRIFLUOROMETHYL)PHENYL)-N-(1,2,4-THIADIAZOL-5-YL)-1,2,3,4-TETRAHYDROISOQUINOLINE-6-SULFONAMIDE] |

same assay, conditions: HEK 293 cells stably transfected with human Nav1.7; PatchXpress; partially inactivated state

| Structure (SMILES) | IC50 |
| --- | --- |
| COc1cc(-c2cccc(Cl)c2)c(F)cc1-c1ncnc2cc(S(=O)(=O)Nc3ncccn3)ccc12 [Example 315, 4-(3′-chloro-2-fluoro-5-methoxy-4-biphenylyl)-N-2-pyrimidinyl-7-quinazolinesulfonamide] | 48 nM |
| COc1cc(-c2cccc(F)c2)c(Cl)cc1-c1cn(C)c(=O)c2cc(S(=O)(=O)Nc3ccon3)ccc12 [Example 328, 4-(2-chloro-3′-fluoro-5-methoxy-[1,1′-biphenyl]-4-yl)-N-(isoxazol-3-yl)-2-methyl-1-oxo-1,2-dihydroisoquinoline-7-sulfonamide trifluoromethanesulfonate] | 68 nM |
| COc1cc(-c2cccc(F)c2)c(Cl)cc1-c1c(OC)cnc2cc(S(=O)(=O)Nc3ccon3)ccc12 (atropisomer, axis not shown; (P)) [Example 340, (P)-4-(2-chloro-3′-fluoro-5-methoxy-[1,1′-biphenyl]-4-yl)-N-(isoxazol-3-yl)-3-methoxyquinoline-7-sulfonamide] | 84 nM |
| COc1cc(-c2cccc(F)c2)c(Cl)cc1-c1c(C)cnc2cc(S(=O)(=O)Nc3ccon3)ccc12 (atropisomer, axis not shown; (M)) [Example 330, (M)-4-(2-chloro-3′-fluoro-5-methoxy-[1,1′-biphenyl]-4-yl)-N-(isoxazol-3-yl)-3-methylquinoline-7-sulfonamide] | 496 nM |
| COc1cc(-c2cccc(F)c2)c(Cl)cc1-c1c(=O)n(C)cc2cc(S(=O)(=O)Nc3ccon3)ccc12 [Example 402, 4-(2-CHLORO-3′-FLUORO-5-METHOXY-[1,1′-BIPHENYL]-4-YL)-N-(ISOXAZOL-3-YL)-2-METHYL-3-OXO-2,3-DIHYDROISOQUINOLINE-7-SULFONAMIDE] | 39 nM |
| CCc1nnc2cc(S(=O)(=O)Nc3ccon3)ccc2c1-c1cc(Cl)c(-c2cccc(F)c2)cc1OC (atropisomer, axis not shown; (P)) [Example 444, (P)-4-(2-chloro-3′-fluoro-5-methoxy-[1,1′-biphenyl]-4-yl)-3-ethyl-N-(isoxazol-3-yl)cinnoline-7-sulfonamide] | 1160 nM |
| COc1cc(-c2ccc3c(c2)CCC3)c(C)cc1-c1ncnc2cc(S(=O)(=O)Nc3ccon3)ccc12 [Example 566, 4-(4-(2,3-dihydro-1H-inden-5-yl)-2-methoxy-5-methylphenyl)-N-3-isoxazolyl-7-quinazolinesulfonamide] | 169 nM |
| COc1cc(-c2cc(Cl)ccc2F)c(C)cc1-c1ncnc2cc(S(=O)(=O)Nc3ccon3)ccc12 [Example 557, 4-(5′-chloro-2′-fluoro-5-methoxy-2-methyl-4-biphenylyl)-N-3-isoxazolyl-7-quinazolinesulfonamide] | 56 nM |
| COc1cc(-c2cccc(C(F)(F)F)c2)c(C#N)cc1-c1nccc2cc(S(=O)(=O)Nc3ncc(F)cn3)ccc12 [Example 374, 1-(2-Cyano-5-methoxy-3′-(trifluoromethyl)-[1,1′-biphenyl]-4-yl)-N-(5-fluoropyrimidin-2-yl)isoquinoline-6-sulfonamide] | 94 nM |
| COc1cc(-c2cccc(F)c2)c(Cl)cc1-c1c(OC)ncc2cc(S(=O)(=O)Nc3ccon3)ccc12 [Example 401, 4-(2-CHLORO-3′-FLUORO-5-METHOXY-[1,1′-BIPHENYL]-4-YL)-N-(ISOXAZOL-3-YL)-3-METHOXYISOQUINOLINE-7-SULFONAMIDE] | 613 nM |
| COc1cc(-c2ccc(Cl)c(C)c2)c(F)cc1-c1cn(C)c(=O)c2cc(S(=O)(=O)Nc3ccon3)ccc12 [Example 454, 4-(4′-CHLORO-2-FLUORO-5-METHOXY-3′-METHYL-[1,1′-BIPHENYL]-4-YL)-N-(ISOXAZOL-3-YL)-2-METHYL-1-OXO-1,2-DIHYDROISOQUINOLINE-7-SULFONAMIDE] | 51 nM |

same assay, conditions: PatchXpress (PX)

| IC50 | Structure (SMILES) |
| --- | --- |
| 47.2 nM | COc1cc(-c2ccc(Cl)c(F)c2)c(C)cc1-c1ncnc2cc(S(=O)(=O)Nc3ccon3)ccc12 [Example 271, 4-(4′-chloro-3′-fluoro-5-methoxy-2-methyl-4-biphenylyl)-N-3-isoxazolyl-7-quinazolinesulfonamide] |
| 28.7 nM | COc1cc(-c2ccc(C)c(Cl)c2)c(C)cc1-c1ncnc2cc(S(=O)(=O)Nc3ccon3)ccc12 [Example 267, 4-(3′-chloro-5-methoxy-2,4′-dimethyl-4-biphenylyl)-N-3-isoxazolyl-7-quinazolinesulfonamide] |
| 31.9 nM | COc1cc(-c2cc(F)cc(F)c2)c(C)cc1-c1nccc2cc(S(=O)(=O)Nc3ccon3)ccc12 [Example 272, 1-(3′,5′-difluoro-5-methoxy-2-methyl-4-biphenylyl)-N-3-isoxazolyl-6-isoquinolinesulfonamide] |
| 29.9 nM | COc1cc(-c2cc(F)cc(Cl)c2)c(C)cc1-c1ncnc2cc(S(=O)(=O)Nc3ccon3)ccc12 [Example 270, 4-(3′-chloro-5′-fluoro-5-methoxy-2-methyl-4-biphenylyl)-N-3-isoxazolyl-7-quinazolinesulfonamide] |
| 25.2 nM | COc1cc(-c2ccc(F)c(Cl)c2)c(C)cc1-c1ncnc2cc(S(=O)(=O)Nc3ccon3)ccc12 [Example 269, 4-(3′-chloro-4′-fluoro-5-methoxy-2-methyl-4-biphenylyl)-N-3-isoxazolyl-7-quinazolinesulfonamide] |

Second part, the compound before the results:

| Structure (SMILES) | IC50 |
| --- | --- |
| COc1cc(-c2cc(C)cc(F)c2)c(C)cc1-c1ncnc2cc(S(=O)(=O)Nc3ccon3)ccc12 [Example 260, 4-(3′-fluoro-5-methoxy-2,5′-dimethyl-4-biphenylyl)-N-3-isoxazolyl-7-quinazolinesulfonamide] | 36.7 nM |
| COc1ccc(Cl)cc1-c1cc(OC)c(-c2ncnc3cc(S(=O)(=O)Nc4ccon4)ccc23)cc1C [Example 266, 4-(5′-chloro-2′,5-dimethoxy-2-methyl-4-biphenylyl)-N-3-isoxazolyl-7-quinazolinesulfonamide] | 18.1 nM |
| COc1cc(-c2cc(F)cc(F)c2)c(Cl)cc1-c1nncc2cc(S(=O)(=O)Nc3ccsn3)ccc12 [Example 256, 1-(2-chloro-3′,5′-difluoro-5-methoxy-4-biphenylyl)-N-3-isothiazolyl-6-phthalazinesulfonamide] | 85.2 nM |

same assay, conditions: in-vitro Nav 1.7 PX (PatchXpress)

| IC50 | Structure (SMILES) |
| --- | --- |
| 98.6 nM | COc1cc(-c2ccc(C)c(Cl)c2)c(C)cc1-c1nccc2cc(S(=O)(=O)Nc3ccon3)ccc12 [Example 282, 1-(3′-chloro-5-methoxy-2,4′-dimethyl-4-biphenylyl)-N-3-isoxazolyl-6-isoquinolinesulfonamide] |
| 40 nM | COc1cc(F)cc(-c2cc(OC)c(-c3nccc4cc(S(=O)(=O)Nc5ccon5)ccc34)cc2F)c1 [Example 305, 1-(2,3′-difluoro-5,5′-dimethoxy-4-biphenylyl)-N-3-isoxazolyl-6-isoquinolinesulfonamide] |
| 188 nM | COc1cc(-c2ccc(Cl)c(F)c2)c(C)cc1-c1nccc2cc(S(=O)(=O)Nc3ccon3)ccc12 [Example 286, 1-(4′-chloro-3′-fluoro-5-methoxy-2-methyl-4-biphenylyl)-N-3-isoxazolyl-6-isoquinolinesulfonamide] |
| 12900 nM | COc1cc(-c2cccc(F)c2)c(Cl)cc1-c1cn(C)c2cc(S(=O)(=O)Nc3ccon3)ccc12 [Example 57, 3-(2-CHLORO-3′-FLUORO-5-METHOXY-[1,1′-BIPHENYL]-4-YL)-N-(ISOXAZOL-3-YL)-1-METHYL-1H-INDOLE-6-SULFONAMIDE] |
| 74 nM | COc1cc(-c2cc(C)cc(Cl)c2)c(F)cc1-c1ncnc2cc(S(=O)(=O)Nc3ccon3)ccc12 [Example 297, 4-(3′-chloro-2-fluoro-5-methoxy-5′-methyl-4-biphenylyl)-N-3-isoxazolyl-7-quinazolinesulfonamide] |
| 26 nM | COc1cc(-c2cc(Cl)cc(Cl)c2)c(F)cc1-c1ncnc2cc(S(=O)(=O)Nc3ccon3)ccc12 [Example 300, 4-(3′,5′-dichloro-2-fluoro-5-methoxy-4-biphenylyl)-N-3-isoxazolyl-7-quinazolinesulfonamide] |
| 1160 nM | COc1cc(-c2cccc(F)c2)c(Cl)cc1-c1cccc2cc(S(=O)(=O)Nc3ccon3)ccc12 [Example 291, 5-(2-chloro-3′-fluoro-5-methoxy-4-biphenylyl)-N-3-isoxazolyl-2-naphthalenesulfonamide] |
| 256 nM | COc1cc(-c2cccc(F)c2)c(Cl)cc1-c1nccc2cc(S(=O)(=O)Nc3ncc(F)cn3)ccc12 [Example 294, 1-(2-chloro-3′-fluoro-5-methoxy-4-biphenylyl)-N-(5-fluoro-2-pyrimidinyl)-6-isoquinolinesulfonamide] |
| 32 nM | COc1cc(-c2cc(C)cc(F)c2)c(F)cc1-c1ncnc2cc(S(=O)(=O)Nc3ccon3)ccc12 [Example 301, 4-(2,3′-difluoro-5-methoxy-5′-methyl-4-biphenylyl)-N-3-isoxazolyl-7-quinazolinesulfonamide] |
| 256 nM | COc1cc(-c2cccc(F)c2)c(C#N)cc1-c1cccc2cc(S(=O)(=O)Nc3ccon3)ccc12 [Example 292, 5-(2-cyano-3′-fluoro-5-methoxy-4-biphenylyl)-N-3-isoxazolyl-2-naphthalenesulfonamide] |

Second part, the compound before the results:

| Structure (SMILES) | IC50 |
| --- | --- |
| COc1cc(-c2cc(C)c(Cl)c(F)c2)c(F)cc1-c1ncnc2cc(S(=O)(=O)Nc3ccon3)ccc12 [Example 295, 4-(4′-chloro-2,3′-difluoro-5-methoxy-5′-methyl-4-biphenylyl)-N-3-isoxazolyl-7-quinazolinesulfonamide] | 59 nM |
| COc1cc(-c2cc(F)cc(C3CC3)c2)c(C)cc1-c1ncnc2cc(S(=O)(=O)Nc3ccon3)ccc12 [Example 306, 4-(3′-cyclopropyl-5′-fluoro-5-methoxy-2-methyl-4-biphenylyl)-N-3-isoxazolyl-7-quinazolinesulfonamide] | 61 nM |
| CCOc1ccc(-c2cc(OC)c(-c3ncnc4cc(S(=O)(=O)Nc5ccon5)ccc34)cc2F)cc1C [Example 304, 4-(4′-ethoxy-2-fluoro-5-methoxy-3′-methyl-4-biphenylyl)-N-3-isoxazolyl-7-quinazolinesulfonamide] | 610 nM |
